From patent publication US11464770B2, “Anticancer pharmaceutical composition” (NATIONAL CANCER CENTER, priority 2016, dated 2022)
Where two headings read alike, the source gives them in different places.

Assays:
[1] = tested on: bladder cancer cell lines; assay: Cell based assay, cell viability (CellTiter-Glo), bladder cancer cell lines; conditions: 72 hours treatment, 0 to 2 μM, CellTiter-Glo
Description: (§1) Commercially available bladder cancer, prostate cancer, lung cancer, breast cancer, blood cancer, pancreatic cancer, colorectal cancer, brain cancer, neuroblastoma, melanoma, liver cancer, cervical carcinoma, ovarian cancer, renal cancer, and papilloma cell lines were each treated with trypsin-EDTA and cultured, followed by being seeded in each well of a 96 well plate. After 24 hours of treatment at constant temperature, the respective cells were treated with the candidate compound so that a final concentration became 0 to 2 μM. The treated cells were additionally cultured for 72 hours, and cell viability was measured by using an ATP detection method (CellTiter-Glo® Luminescent Cell Viability Assay, Promega).

[2] = tested on: blood cancer cell lines (e.g. HL-60, Jurkat, Raji, Ramos, Daudi, MOLT-4); assay: Cell based assay, cell viability (CellTiter-Glo), blood cancer cell lines; conditions: Homo sapiens
Description: as §1

[3] = 253J cells, read-out: IC50, bladder cancer cell line 253J
[4] = 5637 cells, read-out: IC50, bladder cancer cell line 5637
[5] = Homo sapiens, T-24, T24 cells, read-out: IC50, bladder cancer cell line T24
[6] = Homo sapiens, UMUC3, UM-UC-3 cells, read-out: IC50, bladder cancer cell line UM-UC-3
[7] = Homo sapiens, J82 cells, read-out: IC50, bladder cancer cell line J82
[8] = Homo sapiens, KU-19-19 cells, read-out: IC50, bladder cancer cell line KU-19-19
[9] = MBT-2 cells, read-out: IC50, bladder cancer cell line MBT-2
[10] = MV4-11, blood cancer cell line MV-4-11, 72 hours, read-out: IC50, MV-4-11
[11] = blood cancer cell line Daudi, 72 hours, read-out: IC50, Daudi
[12] = blood cancer cell line HL-60, 72 hours, read-out: IC50, HL-60
[13] = blood cancer cell line Jurkat, 72 hours, read-out: IC50, Jurkat
[14] = blood cancer cell line MOLT-4, 72 hours, read-out: IC50, MOLT-4
[15] = blood cancer cell line Raji, 72 hours, read-out: IC50, Raji
[16] = blood cancer cell line Ramos (RA 1), 72 hours, read-out: IC50, Ramos (RA 1)
[17] = blood cancer cell line U-937, 72 hours, read-out: IC50, U-937

SMILES	IC50 [1, 3] [nM]	IC50 [1, 4] [nM]	IC50 [1, 5] [nM]	IC50 [1, 6] [nM]	IC50 [1, 7] [nM]	IC50 [1, 8] [nM]	IC50 [1, 9] [nM]	IC50 [2, 10] [nM]	IC50 [2, 11] [nM]	IC50 [2, 12] [nM]	IC50 [2, 13] [nM]	IC50 [2, 14] [nM]	IC50 [2, 15] [nM]	IC50 [2, 16] [nM]	IC50 [2, 17] [nM]
CC(=O)c1c([S+]([O-])Cc2ccc(C#N)s2)[nH]c2c(Br)ccc(Cl)c2c1=O (centres unmarked) [Compound 98, 5-(((3-acetyl-8-bromo-5-chloro-4-oxo-1,4-dihydroquinolin-2-yl)sulfinyl)methyl)thiophene-2-carbonitrile]		> 2000	1320		> 2000			1240	1470	> 2000	730	> 2000	> 2000	1230	> 2000
CSc1c(C(C)=O)c(=O)c2c(Cl)ccc(Br)c2n1C(C)=O [Compound 18, 1,1′-(8-bromo-5-chloro-2-(methylthio)-4-oxoquinoline-1,3(4H)-diyl)bis(ethan-1-one)]	> 2000	> 2000	> 2000	> 2000	> 2000	> 2000	> 2000	> 2000	> 2000	> 2000	> 2000	> 2000	> 2000	> 2000	> 2000
COCCNc1ccc(C[S+]([O-])c2[nH]c3c(Br)ccc(Cl)c3c(=O)c2C(C)=O)cn1 (centres unmarked) [Compound 105, 3-acetyl-8-bromo-5-chloro-2-(((6-((2-methoxyethyl)amino)pyridin-3-yl)methyl)sulfinyl)quinolin-4(1H)-one]	> 2000	> 2000	> 2000		> 2000			> 2000	> 2000	> 2000	> 2000	> 2000	> 2000	> 2000	> 2000
CC(=O)c1c([S+]([O-])CC#N)[nH]c2c(Br)ccc(Cl)c2c1=O (centres unmarked) [Compound 65, 2-((3-acetyl-8-bromo-5-chloro-4-oxo-1,4-dihydroquinolin-2-yl)sulfinyl)acetonitrile]	> 2000	> 2000	> 2000	> 2000	> 2000	> 2000	> 2000	> 2000	> 2000	> 2000	> 2000	> 2000	> 2000	> 2000	> 2000
CC(=O)c1c([S+](C)[O-])[nH]c2c(Br)ccc(Cl)c2c1=O (centres unmarked) [Compound 1, 3-acetyl-8-bromo-5-chloro-2-(methylsulfinyl)quinolin-4(1H)-one]	1350	1670	1340	1510	> 2000	1940	1190	1390	> 2000	1720	> 2000	1850	> 2000	> 2000	> 2000
CSc1c(C(C)=O)c(=O)c2c(Cl)ccc(Br)c2n1S(=O)(=O)c1ccc(C(C)(C)C)cc1 [Compound 40, 3-acetyl-8-bromo-1-((4-(tert-butyl)phenyl)sulfonyl)-5-chloro-2-(methylthio)quinolin-4(1H)-one]	> 2000	> 2000	> 2000	> 2000	> 2000	> 2000	> 2000	> 2000	> 2000	> 2000	> 2000	> 2000	> 2000	> 2000	> 2000
CC(=O)c1c(Sc2ccccc2)[nH]c2c(Br)ccc(Cl)c2c1=O [Compound 12, 3-acetyl-8-bromo-5-chloro-2-(phenylthio)quinolin-4(1H)-one]	> 2000	> 2000	> 2000	> 2000	> 2000	> 2000	> 2000	> 2000	> 2000	> 2000	> 2000	> 2000	> 2000	> 2000	> 2000
CC(=O)c1c([S+]([O-])Cc2ccc(C(=O)c3ccccc3)cc2)[nH]c2c(Br)ccc(Cl)c2c1=O (centres unmarked) [Compound 63, 3-acetyl-2-((4-benzoylbenzyl)sulfinyl)-8-bromo-5-chloroquinolin-4(1H)-one]	> 2000	> 2000	> 2000		> 2000			> 2000	> 2000	> 2000	> 2000	> 2000	> 2000	> 2000	> 2000
CC(=O)c1c(SCc2cc(F)cc(F)c2)[nH]c2c(Br)ccc(Cl)c2c1=O [Compound 45, 3-acetyl-8-bromo-5-chloro-2-((3,5-difluorobenzyl)thio)quinolin-4(1H)-one]	> 2000	> 2000	> 2000	> 2000	> 2000	> 2000	> 2000	> 2000	> 2000	> 2000	> 2000	> 2000	> 2000	> 2000	> 2000
CSc1[nH]c2ccc(F)cc2c(=O)c1C(C)=O [Compound 8, 1-(6-fluoro-4-hydroxy-2-(methylthio)quinolin-3-yl)ethan-1-one]	> 2000	> 2000	> 2000	> 2000	> 2000	> 2000	> 2000	> 2000	> 2000	> 2000	> 2000	> 2000	> 2000	> 2000	> 2000
CC(=O)c1c([S+]([O-])Cc2ccccc2)n(C(=O)c2ccc(Br)cc2)c2c(Br)ccc(Cl)c2c1=O (centres unmarked) [Compound 20, 3-acetyl-2-(benzylsulfinyl)-8-bromo-1-(4-bromobenzoyl)-5-chloroquinolin-4(1H)-one]	> 2000	> 2000	> 2000	> 2000	> 2000	> 2000	> 2000	> 2000	> 2000	> 2000	> 2000	> 2000	1180	1510	> 2000
CC(=O)c1c([S+]([O-])Cc2ccc(S(F)(F)(F)(F)F)cc2F)[nH]c2c(Br)ccc(Cl)c2c1=O (centres unmarked) [Compound 69, 3-acetyl-8-bromo-5-chloro-2-((2-fluoro-4-(pentafluoro-16-sulfanyl)benzyl)sulfinyl)quinolin-4(1H)-one]	1080	1620	1500	1200	1890	1500	1260	1470	1430	1880	1130	1300	1110	1870	> 2000

Results, then the compound that gave them:

IC50 [1, 3] [nM]	IC50 [1, 4] [nM]	IC50 [1, 5] [nM]	IC50 [1, 6] [nM]	IC50 [1, 7] [nM]	IC50 [1, 8] [nM]	IC50 [1, 9] [nM]	IC50 [2, 10] [nM]	IC50 [2, 11] [nM]	IC50 [2, 12] [nM]	IC50 [2, 13] [nM]	IC50 [2, 14] [nM]	IC50 [2, 15] [nM]	IC50 [2, 16] [nM]	IC50 [2, 17] [nM]	SMILES
> 2000	> 2000	> 2000	> 2000	> 2000	> 2000	> 2000	> 2000	> 2000	> 2000	> 2000	> 2000	> 2000	> 2000	> 2000	CC(=O)c1c(SCc2ccc([N+](=O)[O-])cc2)[nH]c2c(Br)ccc(Cl)c2c1=O [Compound 32, 3-acetyl-8-bromo-5-chloro-2-((4-nitrobenzyl)thio)quinolin-4(1H)-one]
> 2000	> 2000	> 2000		> 2000			> 2000	> 2000	> 2000	> 2000	> 2000	> 2000	> 2000	> 2000	CC(=O)c1c([S+]([O-])Cc2ccc(N)nc2)[nH]c2c(Br)ccc(Cl)c2c1=O (centres unmarked) [Compound 100, 3-acetyl-2-(((6-aminopyridin-3-yl)methyl)sulfinyl)-8-bromo-5-chloroquinolin-4(1H)-one]
> 2000	> 2000	> 2000	> 2000	> 2000	> 2000	> 2000	> 2000	> 2000	> 2000	> 2000	> 2000	> 2000	> 2000	> 2000	COCSc1[nH]c2c(Br)ccc(Cl)c2c(=O)c1C(C)=O [Compound 61, 3-acetyl-8-bromo-5-chloro-2-((methoxymethyl)thio)quinolin-4(1H)-one]
> 2000	> 2000	> 2000	1890	> 2000	> 2000	> 2000	> 2000	> 2000	> 2000	> 2000	> 2000	> 2000	> 2000	> 2000	CC(=O)c1c([S+](C)[O-])n(S(=O)(=O)c2ccc(C(C)(C)C)cc2)c2c(Br)ccc(Cl)c2c1=O (centres unmarked) [Compound 42, 3-acetyl-8-bromo-1-((4-(tert-butyl)phenyl)sulfonyl)-5-chloro-2-(methylsulfinyl)quinolin-4(1H)-one]
> 2000	> 2000	> 2000	> 2000	> 2000	> 2000	> 2000	> 2000	> 2000	> 2000	> 2000	> 2000	> 2000	> 2000	> 2000	CC(=O)c1c(SCc2ccc(Cl)cc2)[nH]c2c(Br)ccc(Cl)c2c1=O [Compound 10, 3-acetyl-8-bromo-5-chloro-2-((4-chlorobenzyl)thio)quinolin-4(1H)-one]
> 2000	> 2000	> 2000		> 2000			> 2000	> 2000	> 2000	> 2000	> 2000	> 2000	> 2000	> 2000	CC(=O)c1c([S+]([O-])Cc2cccc(I)c2)[nH]c2c(Br)ccc(Cl)c2c1=O (centres unmarked) [Compound 48, 3-acetyl-8-bromo-5-chloro-2-((3-iodobenzyl)sulfinyl)quinolin-4(1H)-one]
